Assay results as given in paper PMC8227285, “Functional Characterization of the Dopaminergic Psychostimulant Sydnocarb as an Allosteric Modulator of the Human Dopamine Transporter” (Biomedicines, 2021).
Like-named read-outs stand apart in the source and are kept apart here.

Key:
hDAT = molecular target: T1, hDAT (Homo sapiens, UniProt Q01959); assay: [3H]-dopamine transport inhibition assay in transiently transfected COS-7 cells; assay type: cell-based; conditions: for IC50: mean ± SEM
T1 construct: expressed in transfected cells; host or cells: COS-7
T1 sequence (Q01959 whole entry): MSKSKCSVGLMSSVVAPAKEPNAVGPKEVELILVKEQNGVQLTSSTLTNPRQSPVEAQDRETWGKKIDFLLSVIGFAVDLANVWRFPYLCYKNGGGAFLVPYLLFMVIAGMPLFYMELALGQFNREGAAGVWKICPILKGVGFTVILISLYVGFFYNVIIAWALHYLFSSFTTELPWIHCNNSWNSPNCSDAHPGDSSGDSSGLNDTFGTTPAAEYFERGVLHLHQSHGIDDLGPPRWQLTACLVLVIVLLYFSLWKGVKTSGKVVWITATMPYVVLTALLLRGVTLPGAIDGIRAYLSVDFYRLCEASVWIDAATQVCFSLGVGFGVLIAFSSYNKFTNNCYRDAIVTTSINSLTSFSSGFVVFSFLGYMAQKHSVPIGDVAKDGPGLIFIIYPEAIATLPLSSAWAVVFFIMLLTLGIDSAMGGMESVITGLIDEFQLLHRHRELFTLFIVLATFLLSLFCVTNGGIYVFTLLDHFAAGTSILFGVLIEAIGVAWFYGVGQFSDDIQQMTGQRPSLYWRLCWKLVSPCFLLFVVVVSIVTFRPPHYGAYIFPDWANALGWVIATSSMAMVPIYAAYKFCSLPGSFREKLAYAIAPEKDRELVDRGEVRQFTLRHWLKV
Experimental: (§1) Transiently transfected COS-7 cells (expressing hDAT, hNET, or hSERT) were plated in 96-well plates. Uptake experiments were performed 2 days later. The media was removed, and the cells were washed with PBS-CM. Following washing, the cells were incubated for 10 min with various concentrations of sydnocarb, and the uptake was initiated by adding [^3H]-dopamine to a final concentration of 25 nM. The uptake was allowed to continue for 10 min at room temperature and was terminated by washing twice with PBS-CM. The cells were solubilized in a scintillation cocktail and counted on a microplate scintillation and luminescence counter (PerkinElmer, Waltham, MA, USA). Data were fitted to a Hill equation by a nonlinear regression analysis to obtain the IC50 values.

hNET = molecular target: T2, hNET (Homo sapiens, UniProt P23975); assay: Radioactive neurotransmitter transport inhibition assay in transiently transfected COS-7 cells; assay type: cell-based; conditions: hNET transiently transfected COS-7 cells; mean ± SEM, three independent experiments (Figure 1A)
T2 construct: expressed in transfected cells; host or cells: COS-7
T2 sequence (P23975 whole entry): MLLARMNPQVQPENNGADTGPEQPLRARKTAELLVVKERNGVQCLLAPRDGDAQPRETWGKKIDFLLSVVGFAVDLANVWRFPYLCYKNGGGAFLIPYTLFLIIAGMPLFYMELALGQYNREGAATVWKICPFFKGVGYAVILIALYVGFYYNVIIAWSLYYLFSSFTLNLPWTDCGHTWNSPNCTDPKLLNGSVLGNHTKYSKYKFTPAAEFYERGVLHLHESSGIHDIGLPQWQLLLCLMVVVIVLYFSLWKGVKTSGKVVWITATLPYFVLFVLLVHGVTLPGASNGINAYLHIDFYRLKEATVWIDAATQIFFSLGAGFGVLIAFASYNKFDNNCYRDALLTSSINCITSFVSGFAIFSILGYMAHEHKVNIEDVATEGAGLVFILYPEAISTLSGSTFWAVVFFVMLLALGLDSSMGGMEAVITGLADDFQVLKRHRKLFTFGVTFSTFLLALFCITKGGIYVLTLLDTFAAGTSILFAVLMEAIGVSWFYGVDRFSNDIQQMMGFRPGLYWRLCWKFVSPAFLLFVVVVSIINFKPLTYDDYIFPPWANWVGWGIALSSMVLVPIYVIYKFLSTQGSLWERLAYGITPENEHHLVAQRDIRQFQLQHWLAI
Experimental: as §1

hSERT = molecular target: T3, hSERT (Homo sapiens, UniProt P31645); assay: as above; assay type: cell-based; conditions: hSERT transiently transfected COS-7 cells, mean ± SEM, three independent experiments (Figure 1A)
T3 construct: expressed in transfected cells; host or cells: COS-7
T3 sequence (P31645 whole entry): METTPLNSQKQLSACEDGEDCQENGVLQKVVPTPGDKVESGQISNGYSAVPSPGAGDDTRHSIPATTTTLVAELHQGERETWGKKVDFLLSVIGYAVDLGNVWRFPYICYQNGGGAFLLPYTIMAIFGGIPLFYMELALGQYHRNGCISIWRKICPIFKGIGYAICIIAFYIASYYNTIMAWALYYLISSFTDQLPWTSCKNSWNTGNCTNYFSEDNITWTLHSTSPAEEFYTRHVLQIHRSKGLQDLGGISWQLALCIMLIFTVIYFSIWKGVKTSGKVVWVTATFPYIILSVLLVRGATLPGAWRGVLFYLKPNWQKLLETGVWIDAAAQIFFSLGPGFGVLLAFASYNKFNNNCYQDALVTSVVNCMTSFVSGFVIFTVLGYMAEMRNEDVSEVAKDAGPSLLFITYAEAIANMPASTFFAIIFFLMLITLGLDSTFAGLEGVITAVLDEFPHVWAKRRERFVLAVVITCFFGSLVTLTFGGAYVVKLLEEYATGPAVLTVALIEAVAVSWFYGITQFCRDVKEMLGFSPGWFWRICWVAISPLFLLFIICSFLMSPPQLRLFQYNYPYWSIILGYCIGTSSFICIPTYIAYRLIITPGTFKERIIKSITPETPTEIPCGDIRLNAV
Experimental: as §1

wild-type DAT = molecular target: T4, wild-type DAT (Homo sapiens, UniProt Q01959); assay: [3H]-DA uptake kinetic assay in COS-7 cells (Michaelis-Menten); assay type: cell-based; conditions: vehicle 634.8 ± 84.62, four independent experiments
T4 construct: expressed in transfected cells; host or cells: COS-7
T4 sequence (Q01959 whole entry): as the sequence (Q01959 whole entry) above
Experimental: Transport assays were performed as described previously. Briefly, COS-7 cells were transfected and plated in 96-well plates. Uptake experiments were performed 2 days after transfection. The media was removed, and the cells were washed with PBS (137-mM NaCl, 2.7-mM KCl, 4.3-mM Na2HPO4, and 1.4-mM KH2PO4, pH 7.4) containing 0.1-mM CaCl2, 1-mM MgCl2, […], and […] (PBSCM). Following washing, a constant concentration of radiolabeled substrate (50-nM [^3H]-DA) and increasing concentrations of unlabeled substrate (0.05–100-μM DA) were added, and the uptake was allowed to continue for 10 min at room temperature. The uptake was terminated by washing twice with PBS-CM. The cells were solubilized in scintillation cocktail and counted on a microplate scintillation and luminescence counter (PerkinElmer, Waltham, MA, USA). Background was obtained from non-transfected cells and subtracted. Data were fitted to a Michaelis−Menten equation using nonlinear regression to obtain Km and Vmax.

DAT-XC/W84C mutant = molecular target: T5, DAT-XC/W84C mutant (Homo sapiens, UniProt Q01959, C306A/W84C); assay: Substituted cysteine scanning (SCAM) MTSEA-biotin biotinylation in HEK-293 cells; assay type: cell-based
T5 construct: expressed in transfected cells; host or cells: HEK-293
T5 sequence (Q01959 1-620 W84C/C306A): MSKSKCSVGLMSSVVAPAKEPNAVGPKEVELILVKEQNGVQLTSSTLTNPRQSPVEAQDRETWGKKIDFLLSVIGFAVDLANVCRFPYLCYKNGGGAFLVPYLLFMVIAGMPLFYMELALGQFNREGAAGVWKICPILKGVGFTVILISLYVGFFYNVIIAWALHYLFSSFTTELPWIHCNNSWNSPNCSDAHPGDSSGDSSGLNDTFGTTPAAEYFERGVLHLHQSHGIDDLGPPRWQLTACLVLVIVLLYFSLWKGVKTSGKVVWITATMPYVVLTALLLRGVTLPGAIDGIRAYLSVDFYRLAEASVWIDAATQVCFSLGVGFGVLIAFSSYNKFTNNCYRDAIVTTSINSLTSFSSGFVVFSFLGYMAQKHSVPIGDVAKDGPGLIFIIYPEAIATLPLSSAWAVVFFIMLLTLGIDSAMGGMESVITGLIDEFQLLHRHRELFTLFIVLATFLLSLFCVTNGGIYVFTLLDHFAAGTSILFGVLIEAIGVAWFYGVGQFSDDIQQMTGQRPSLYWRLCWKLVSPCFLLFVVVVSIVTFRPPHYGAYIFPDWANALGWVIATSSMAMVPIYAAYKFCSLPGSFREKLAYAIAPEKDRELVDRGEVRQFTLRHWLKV
Experimental: Briefly, HEK-293 cells were transiently transfected and cultured to confluency in a 6-well plate. The cells were washed with ice-cold PBS-CM (pH 7.4) twice and incubated at 4 °C with vehicle or sydnocarb (0.5 or 2 μM) for 10 min, followed by the addition of MTSEA-biotin (125 μM, final concentration). After 10-min incubation at 4 °C, the biotinylation was quenched by aspirating the liquid and washing the cells with 1-mM DTT in PBS-CM, followed by a final wash with PBS-CM only. The cells were lysed in 600 μL of TNE lysis buffer (pH 7.4) containing protease inhibitors (100×) for 40 min at 4 °C. The cells were collected and centrifuged at 12,000× g for 10 min at 4 °C. The supernatant was collected, of which 30 μL was mixed with DTT (0.5 M, 5 μL) and LDS Nu-page (15 μL) for the total lysate sample, and saved at −20 °C. Four hundred and fifty microliters of the supernatant were incubated overnight at 4 °C with 50 μL of 50% slurry of high-capacity neutravidin agarose resin. The beads containing “biotinylated” proteins were washed with ice-cold TNE lysis three times, followed by a final wash with PBS-CM, and then mixed with LDL Nu-page (15 μL), DTT (0.5 M, 5 μL), and water (30 μL). […] Densities of he DAT bands were analyzed with an Odyssey imaging system and associated ImageStudio software (LI-COR, Lincoln, NE, USA).

Y156F-DAT [1] = molecular target: T6, Y156F-DAT (Homo sapiens, UniProt Q01959, Y156F); assay: DA uptake inhibition assay in COS-7 cells expressing DAT mutant; assay type: cell-based
T6 construct: expressed in transfected cells; host or cells: COS-7
T6 sequence (Q01959 whole entry Y156F): as the sequence (Q01959 whole entry) above, with Y156F counted along it
Experimental: as §1

Y335A-DAT [2] = molecular target: T7, Y335A-DAT (Homo sapiens, UniProt Q01959, Y335A); assay: as above; assay type: cell-based
T7 construct: expressed in transfected cells; host or cells: COS-7
T7 sequence (Q01959 whole entry Y335A): as the sequence (Q01959 whole entry) above, with Y335A counted along it
Experimental: as §1

Y156F-DAT [3] = molecular target: T6, Y156F-DAT; conditions: cited from earlier work
Y335A-DAT [4] = molecular target: T7, Y335A-DAT; conditions: cited from earlier work

In the case of `CC(Cc1ccccc1)[n+]1cc([N-]C(=O)Nc2ccccc2)on1` (stereo not shown) [sydnocarb], the IC50 (hDAT; WT-DAT-transfected COS-7 cells, mutant comparison (Figure 6), three independent experiments, read-out: IC50, DA uptake inhibition) is reported as 439 ± 135 nM, the “fold more potent towards hDAT than towards hNET” value (hDAT; from dose-response IC50 values) is reported as 70 fold and the “fold more potent towards hDAT than towards hSERT” value (hDAT; from dose-response IC50 values) is reported as 1000 fold. The IC50 (hDAT; hDAT transiently transfected COS-7 cells, three independent experiments (Figure 1A), listed as Sydnocarb, read-out: IC50, transport inhibition) was 493 ± 140 nM, the IC50 (hDAT; hDAT transiently transfected COS-7 cells, three independent experiments (Figure 1A), read-out: IC50, transport inhibition) was 490 ± 140 nM and the IC50 (hNET) was 34900 ± 14100 nM. The IC50 (hSERT) was 495000 ± 17000 nM, the IC50 (hSERT; listed as Sydnocarb) was 495000 ± 17000 nM and the “Vmax of DAT-mediated [3H]-DA uptake” value (wild-type DAT; in the presence of 0.5 µM Sydnocarb) was 455.6 ± 89.6 femtomole/min/well. The “Vmax of DAT-mediated [3H]-DA uptake” value (wild-type DAT; in the presence of 2.0 µM Sydnocarb) was 195 ± 80.7 femtomole/min/well, the “biotinylation of W84C by MTSEA-biotin” value (DAT-XC/W84C mutant; coincubation with 1 µM sydnocarb, four independent experiments) was “significantly decreased” and the “change in potency, Y156F-DAT versus WT-DAT” value (Y156F-DAT [1]; COS-7 cells) was “no significant changes”. For the same molecule, the IC50 (Y156F-DAT [1]; Y156F-DAT-transfected COS-7 cells, mean ± SEM, three independent experiments) was 262 ± 118 nM, the “reduction of potency for Y335A-DAT compared with WT-DAT” value (Y335A-DAT [2]; COS-7 cells) was 3.5 fold and the IC50 (Y335A-DAT [2]; Y335A-DAT-transfected COS-7 cells, mean ± SEM, three independent experiments) was 1420 ± 201 nM.
In the case of `COC(=O)[C@H]1[C@@H](OC(=O)c2ccccc2)C[C@@H]2CC[C@H]1N2C` [cocaine], the “labeling of W84C with MTSEA-biotin” value (DAT-XC/W84C mutant; coincubation with 100 µM cocaine (negative control)) is given as “not affected”, the “effect of Y156F mutation on binding affinities” value (Y156F-DAT [3]) is given as “unaffected” and the “effect of Y335A mutation on potency” value (Y335A-DAT [4]) is given as “markedly impaired”.
In the case of `CCCCN1[C@@H]2CC[C@H]1CC(OC(c1ccc(F)cc1)c1ccc(F)cc1)C2` (stereo partly shown) [JHW-007], the “effect of Y156F mutation on potency” value (Y156F-DAT [3]) is given as “significantly reduced”.
